Results from ChEMBL document CHEMBL5725527, “Heterocyclic compounds and methods of their use” (2017).

The molecules below were run against T1, Type-2 angiotensin II receptor (Homo sapiens, UniProt P50052) (assay: AT2 Receptor Binding Assay: 120 μL membrane (5 mg protein/well) was incubated with 15 μL of [125I]-CGP42112A and 15 μL of compound at RT for 1.5 hrs. The binding reaction was stopped by rapid filtration through Unifilter GF/C plates (presoaked in 0.3% (v:v) BSA).Plate was washed three times with ice cold wash buffer.The filtration plates were dried at 37° C. overnight.50 μL of scintillation cocktail was added to each well.Radioactivity was determined using MicroBetaTriluxmicroplate scintillation counter.).
T1 sequence (P50052 whole entry): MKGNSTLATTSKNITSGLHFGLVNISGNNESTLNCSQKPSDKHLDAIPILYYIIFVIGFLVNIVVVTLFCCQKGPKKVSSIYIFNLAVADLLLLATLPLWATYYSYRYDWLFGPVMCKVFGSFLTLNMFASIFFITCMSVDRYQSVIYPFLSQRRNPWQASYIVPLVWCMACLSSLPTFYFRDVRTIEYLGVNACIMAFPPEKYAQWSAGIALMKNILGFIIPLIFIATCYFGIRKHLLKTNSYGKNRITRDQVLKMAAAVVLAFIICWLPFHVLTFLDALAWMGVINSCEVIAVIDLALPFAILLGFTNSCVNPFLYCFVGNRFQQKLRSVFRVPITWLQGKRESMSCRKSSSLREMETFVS

Structure (SMILES) | IC50 [nM]
COc1ccc2c(c1OCC#Cc1ccc(F)cc1)C[C@@H](C(=O)O)N(C(=O)C(c1ccccc1)c1ccccc1)C2 | 133
COc1ccc2c(c1OCC#Cc1ccccc1)C[C@@H](C(=O)O)N(C(=O)C(c1ccccc1)c1ccccc1)C2 | 96.2
COc1ccc2c(c1OCc1ccccc1)C[C@@H](C(=O)NS(=O)(=O)N(C)C)N(C(=O)C(c1ccccc1)c1ccccc1)C2 | 10.9

More lines, in order of falling IC50, values ahead:

IC50 [nM] | Structure (SMILES)
206 | COc1ccc2c(c1OCC#Cc1ccc(F)cc1)C[C@@H](C(=O)NS(=O)(=O)N(C)C)N(C(=O)C(c1ccccc1)c1ccccc1)C2
79.5 | COc1ccc2c(c1OCC#Cc1ccccc1)C[C@@H](C(=O)NS(=O)(=O)N(C)C)N(C(=O)C(c1ccccc1)c1ccccc1)C2
33.5 | O=C(O)[C@@H]1Cc2c(ccc(O)c2OCc2ccccc2)CN1C(=O)C(c1ccccc1)c1ccccc1
